Reference: patent US5672712A, “Thiazoline derivatives” (Taisho Pharmaceutical Co., Ltd., priority 1994, dated 1997)
In brackets after ≈: the same amount, converted by molar mass. Counter-ions that a name gives are not always drawn.

How the values were obtained:
[1] = target: T1, fibrinogen receptor (GpIIb/IIIa) on blood platelet (Homo sapiens, UniProt P05106+P08514); experiment: Human Blood Platelet Fibrinogen Binding Test (125I labeled human fibrinogen, ADP 10 μM); conditions: human platelet 125I-fibrinogen binding
T1 construct: fibrinogen-free blood platelet suspension; endogenous in cells; host or cells: human blood platelets (from citrated venous blood of a healthy donor, gel-filtered)
T1 sequence (P08514 32-887 limits assumed): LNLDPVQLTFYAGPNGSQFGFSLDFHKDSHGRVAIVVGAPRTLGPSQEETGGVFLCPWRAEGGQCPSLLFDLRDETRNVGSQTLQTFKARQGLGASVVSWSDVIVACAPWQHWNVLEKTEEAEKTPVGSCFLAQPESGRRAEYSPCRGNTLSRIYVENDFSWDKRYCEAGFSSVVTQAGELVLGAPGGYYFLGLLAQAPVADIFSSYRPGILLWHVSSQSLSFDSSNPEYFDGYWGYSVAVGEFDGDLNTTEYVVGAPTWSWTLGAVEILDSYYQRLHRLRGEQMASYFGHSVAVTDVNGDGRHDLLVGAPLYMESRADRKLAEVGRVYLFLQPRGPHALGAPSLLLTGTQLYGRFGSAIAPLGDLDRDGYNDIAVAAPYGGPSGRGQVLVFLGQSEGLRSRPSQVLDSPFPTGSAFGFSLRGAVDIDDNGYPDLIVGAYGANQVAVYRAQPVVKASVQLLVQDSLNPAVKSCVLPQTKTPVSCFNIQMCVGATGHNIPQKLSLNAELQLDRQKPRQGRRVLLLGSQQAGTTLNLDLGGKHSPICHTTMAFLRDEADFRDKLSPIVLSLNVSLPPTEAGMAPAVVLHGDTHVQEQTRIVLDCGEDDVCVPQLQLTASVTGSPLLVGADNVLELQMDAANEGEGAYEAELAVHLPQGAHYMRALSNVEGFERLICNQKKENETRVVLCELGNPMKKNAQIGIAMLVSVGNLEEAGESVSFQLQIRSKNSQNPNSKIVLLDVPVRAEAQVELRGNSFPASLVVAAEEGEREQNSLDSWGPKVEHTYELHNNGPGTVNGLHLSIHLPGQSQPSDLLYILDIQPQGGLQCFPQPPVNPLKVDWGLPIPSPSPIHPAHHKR
T1 sequence (P08514 891-1039 partner limits assumed): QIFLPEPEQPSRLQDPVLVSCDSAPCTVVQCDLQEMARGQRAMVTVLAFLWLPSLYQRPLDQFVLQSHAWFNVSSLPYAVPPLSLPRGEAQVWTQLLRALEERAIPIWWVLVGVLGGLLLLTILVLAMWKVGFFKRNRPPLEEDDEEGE
T1 sequence (P05106 27-788): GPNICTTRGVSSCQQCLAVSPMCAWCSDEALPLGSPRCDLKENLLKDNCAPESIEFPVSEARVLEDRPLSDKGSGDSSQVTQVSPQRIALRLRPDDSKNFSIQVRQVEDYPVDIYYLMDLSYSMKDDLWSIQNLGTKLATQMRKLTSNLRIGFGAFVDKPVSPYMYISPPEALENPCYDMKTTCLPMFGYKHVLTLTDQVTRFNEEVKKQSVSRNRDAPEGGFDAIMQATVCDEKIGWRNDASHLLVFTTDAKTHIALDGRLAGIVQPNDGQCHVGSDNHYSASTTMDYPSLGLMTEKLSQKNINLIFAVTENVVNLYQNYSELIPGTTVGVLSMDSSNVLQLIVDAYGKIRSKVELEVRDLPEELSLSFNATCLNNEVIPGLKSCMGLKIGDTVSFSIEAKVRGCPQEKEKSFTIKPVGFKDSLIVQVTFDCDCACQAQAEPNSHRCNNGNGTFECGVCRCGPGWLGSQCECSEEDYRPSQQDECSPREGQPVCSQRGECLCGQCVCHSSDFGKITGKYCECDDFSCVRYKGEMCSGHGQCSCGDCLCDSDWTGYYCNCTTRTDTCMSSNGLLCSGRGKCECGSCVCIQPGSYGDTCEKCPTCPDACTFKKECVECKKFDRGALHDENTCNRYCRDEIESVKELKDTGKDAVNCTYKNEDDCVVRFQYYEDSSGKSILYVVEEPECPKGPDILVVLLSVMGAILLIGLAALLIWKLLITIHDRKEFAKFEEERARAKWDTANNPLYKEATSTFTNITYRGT
Method: Experiment 1 [Human Blood Platelet Fibrinogen Binding Test]
The test was carried out referring to the methods of G. A. Marguerie (J. Biol. Chem., vol. 254, pages. 5357-5363, 1979) and N. S. Nicholson (Thromb. Res., vol. 50, pages 567-578, 1991).
(§1) Citrated blood (the volume ratio of 3.13% sodium citrate solution and blood is 1:9) was collected from the cubital vein of a healthy human who had not received any drugs known to affect the function of blood platelet within 2 weeks prior to starting the test, and centrifuged at 120× g at room temperature for 15 minutes to give platelet rich plasma (PRP) as a supernatant.
To the above PRP was added one fifth volume of an ACD solution (citric acid/sodium citrate/dextrose), followed by centrifugation at 1200× g for 15 minutes. The precipitate was suspended in a Tyrode's solution ([…], 2 mM Mg^2+), followed by gel filtration using Sepharose 2B column to give a fibrinogen-free blood platelet suspension (1×10^9 /ml). The binding test was carried out by using the fibrinogen-free blood platelet suspension, the solutions of the compounds of Formula (I) in dimethyl sulfoxide which were each adjusted to the desired concentration by diluting with a physiological saline solution as test drugs, ADP (final concentration: 10 μM) and ^125 I labeled human fibrinogen, and then the binding inhibitory rate of the test drug was calculated.
N-(2-Carboxyethyl)-2-(4-amidinobenzoylimino)-3,4-dimethyl-3H-thiazoline-5-carboxamide hydrobromide (described in WO 94/02472; referred to as "Comparative drug" in the following experiments) was used as a comparative drug. The drug solution was prepared in the same manner as described above, and tested as described above.
The results are shown in Table 1 in which the compound numbers are the same as defined in the following examples and are also used in the following experiments.

[2] = Stability Test (pH 7 phosphate buffer, 80° C.); type: physicochemical; conditions: 20 mg in 1000 ml; for remaining at 4 h: After 4 hours; for remaining at 4 h / remaining at 8 h / remaining at 24 h: read-out: Remaining rate of Test drug; for remaining at 8 h: After 8 hours; for remaining at 24 h: After 24 hours; for Remaining rate of Test drug: Immediately after
Method: Experiment 4 [Stability Test]
Stability test was carried out referring to the method of A. K. Amirjahed et al [J. Pharm. Sci., vol. 66, page 785 (1977)].
20 mg of Compound 8 obtained in the following example and 20 mg of Comparative drug, each weighed accurately, were each dissolved in 0.1N phosphate buffer (a buffer of a suitable amount of 0.1M potassium dihydrogenphosphate mixed with a suitable amount of 0.1M disodium hydrogenphosphate to adjust to pH 7) to make exactly 1000 ml to give standard solutions, respectively. The solution was dispensed into ampules, and they were stored at 80° C. for 4 hours, 8 hours and 24 hours to prepare test solutions.
20 μl of the test solution and 20 μl of the standard solution were each quantified by high performance liquid chromatography method under the following procedure conditions, and the peak areas of Compound 8 and Comparative drug at the storage times were determined, and the remaining rate was calculated by using the following formula, and the results are shown in Table 4.
Detection instrument: Ultraviolet spectrophotometer (Detection wave length: 247 nm)
(§2) Column: ODS column 4.6.phi.×150 mm (TSK Gel ODS 80TM)
Column temperature: A definite temperature in the vicinity of 50° C.
[Compound 8] 1 ml of phosphoric acid and 5 g of sodium dodecylsulfate (SDS) are added to 1000 ml of a mixture of water and acetonitrile (65:35).
[Comparative drug] 1 ml of phosphoric acid and 3 g of sodium dodecylsulfate (SDS) are added to 1000 ml of a mixture of water and acetonitrile (60:40).
Formula: Remaining rate (%)= [formula]

[3] = Solubility Test (0.1M phosphate buffer, pH 7); type: physicochemical; conditions: aqueous buffer, 0.1M phosphate buffer pH 7, 25° C.
Method: Experiment 3 [Solubility Test]
Solubility test was carried out referring to the method of S. Miyazaki et al. [Chem. Pharm. Bull., vol. 23, page 1197 (1975)].
9.511 g of disodium hydrogenphosphate weighed accurately was dissolved in 800 ml of water. The solution was adjusted to pH 7.0 by adding sodium dihydrogenphosphate, and the total volume of the solution was made exactly 1000 ml to give a 0.1M phosphate buffer (pH 7). To 1.0 ml of the buffer solution measured exactly was added an excess amount for the solubility limit of the test drug. The suspension was treated by supersonic waves for 5 minutes and stirred on a water bath at 25° C. for 24 hours. After removal of the insoluble substance by using a membrane filter (0.22 μm), the filtrate was appropriately diluted to give a test solution. Separately, 1 mg of the test drug weighed accurately was dissolved in the eluate to make exactly 100 ml to give a standard solution. The test solution and the standard solution were quantified by high performance liquid chromatography method under the following procedure conditions, and the solubility of the test drug was calculated.
Detection instrument: Ultraviolet spectrophotometer (Detection wave length: 246 nm)
as §2
Column temperature: A definite temperature in the vicinity of 50° C. […]

[4] = test system: blood platelet aggregation; experiment: Human in vitro Blood Platelet Aggregation Inhibition Test (ADP-induced, PRP); type: cell-based; conditions: ADP 7 μM, 37° C., 50% inhibition of maximum aggregation
Method: Experiment 2 [Human in vitro Blood Platelet Aggregation Inhibition Test]
as §1, with “supernatant. The remaining precipitate was further centrifuged at 1500× g for 10 minutes to give platelet poor plasma (PPP) as a supernatant. The blood platelet counts of PRP were adjusted to 50~60×10^4 /μl by diluting with PPP.” for “supernatant.”
Blood platelet aggregation was monitored according to the method of Born G. V. R., [Nature, vol. 194, page 927 (1962)] using adenosine diphosphate (produced by Sigma Co.; hereinafter referred to as "ADP") as an aggregation-inducing substance. That is, a solution of the compound of Formula (I) as a test drug in dimethyl sulfoxide was adjusted to the desired concentration with a physiological saline solution. 25 μl of the solution was added to 250 μl of PRP and incubated at 37° C. for 3 minutes, and 25 μl of ADP (final concentration: 7 μM) was added thereto. […]

Structure (SMILES): Cc1c(C(=O)NCCC(=O)O)sc(=NC(=O)c2ccc(C(=N)NCCCC(=O)NC3CCCCC3)cc2)n1C [Compound 12, N-(2-carboxyethyl)-2-{4-[N-(3-cyclohexylaminocarbonylpropyl)amidino]benzoylimino}-3,4-dimethyl-3H-thiazoline-5-carboxamide]
- IC50 [1]: 4.7 nM

Structure (SMILES): Cc1c(C(=O)NCCC(=O)O)sc(=NC(=O)c2ccc(C(=N)NCCCC(=O)OC3CCCCC3)cc2)n1C(C)C [Compound 17, N-(2-carboxyethyl)-2-{4-[N-(3-cyclohexyloxycarbonylpropyl)amidino]benzoylimino}-3-isopropyl-4-methyl-3H-thiazoline-5-carboxamide]
- IC50 [1]: 12.6 nM

Structure (SMILES): Cc1c(C(=O)NCCC(=O)O)sc(=NC(=O)c2ccc(C(=N)NCCCCCC(=O)Nc3ccccc3)cc2)n1C1CC1 [Compound 51, N-(2-carboxyethyl)-2-{4-[N-(5-phenylaminocarbonylpentyl)amidino]benzoylimino}-3-cyclopropyl-4-methyl-3H-thiazoline-5-carboxamide]
- IC50 [1]: 8.6 nM

Structure (SMILES): Cc1c(C(=O)NCCC(=O)O)sc(=NC(=O)c2ccc(C(=N)NCCCC(=O)O)cc2)n1C [Compound 8, N-(2-carboxyethyl)-2-{4-[N-(3-carboxypropyl)amidino]benzoylimino}-3,4-dimethyl-3H-thiazoline-5-carboxamide]
- IC50 [1]: 25.6 nM
- remaining at 4 h [2]: 97.8%
- remaining at 8 h [2]: 95.7%
- remaining at 24 h [2]: 88.9%
- Remaining rate of Test drug [2]: 100%
- solubility at 24 h [3]: 20 mg/mL (≈ 42.1 mM)
- IC50 [4]: 39 nM

Structure (SMILES): Cc1c(C(=O)NCCC(=O)O)sc(=NC(=O)c2ccc(C(=N)NCCC(=O)O)cc2)n1C [Compound 9, N-(2-carboxyethyl)-2-{4-[N-(2-carboxyethyl)amidino]-benzoylimino}-3,4-dimethyl-3H-thiazoline-5-carboxamide]
- IC50 [1]: 16.5 nM

Structure (SMILES): Cc1c(C(=O)NCCC(=O)O)sc(=NC(=O)c2ccc(C(=N)N)cc2)n1C [Comparative drug, N-(2-Carboxyethyl)-2-(4-amidinobenzoylimino)-3,4-dimethyl-3H-thiazoline-5-carboxamide hydrobromide, reference compound]
- IC50 [1]: 5 nM
- remaining at 4 h [2]: 82.2%
- remaining at 8 h [2]: 68.4%
- remaining at 24 h [2]: 32.3%
- Remaining rate of Test drug [2]: 100%
- solubility at 24 h [3]: 0.03 mg/mL
- IC50 [4]: 17 nM

Structure (SMILES): Cc1c(C(=O)NCCC(=O)O)sc(=NC(=O)c2ccc(C(=N)NCCCC(=O)OC3CCCCC3)cc2)n1C1CCC1 [Compound 56, N-(2-carboxyethyl)-2-{4-[N-(3-cyclohexyloxycarbonylpropyl)amidino]benzoylimino}-3-cyclobutyl-4-methyl-3H-thiazoline-5-carboxamide]
- IC50 [1]: 11.1 nM

Structure (SMILES): Cc1c(C(=O)NCCC(=O)O)sc(=NC(=O)c2ccc(C(=N)NCCCC(=O)OC3CCCCC3)cc2)n1C [Compound 11, N-(2-carboxyethyl)-2-{4-[N-(3-cyclohexyloxycarbonylpropyl)amidino]benzoylimino}-3,4-dimethyl-3H-thiazoline-5-carboxamide]
- IC50 [1]: 8.2 nM

Structure (SMILES): Cc1c(C(=O)NCCC(=O)O)sc(=NC(=O)c2ccc(C(=N)NCCCC(=O)OC3CCCCC3)cc2)n1C1CC1 [Compound 49, N-(2-carboxyethyl)-2-{4-[N-(3-cyclohexyloxycarbonylpropyl)amidino]benzoylimino}-3-cyclopropyl-4-methyl-3H-thiazoline-5-carboxamide]
- IC50 [1]: 7.2 nM
